Values of other authors as cited in US5696156A, “Triterpene derivatives with immunosuppressant activity” (Merck & Co. Inc., priority 1996, dated 1997).

Tested on: Kv 1.3 channels
Details: stated for the reference blocker that defines the efflux window

margatoxin (TIINVKCTSPKQCLPPCKAQFGQSAGAKCMNGKCKCYPH; UniProt P40755 1-39, looked up)
IC50: 0.1 nM
